PMC7504215, “Copper(II) Complexes with Mixed Heterocycle Ligands as Promising Antibacterial and Antitumor Species” (Molecules, 2020)
Read-outs that look alike come from different tables or passages of the source.

Assays:
[1] = test system: human red blood cells (hRBCs); experiment: Hemolytic activity (adapted ASTM F 756-00); type: cell-based; conditions: 25 µg/mL, 4 h at 37 °C, threshold 5% (ASTM F 756-00)
Procedure: The hemolytic activity of the compounds was determined using an adapted protocol of ASTM F 756–00 standard based on hemoglobin release from human red blood cells (hRBCs) resulting after cell lyses. Briefly, the blood samples were collected from healthy volunteers, diluted to a concentration of hemoglobin ~10 mg/mL with phosphate buffer saline (PBS) and then incubated with various concentrations of compounds for 4 h at 37 °C. After 4 h, the cells were centrifuged, the supernatant was collected, transferred into 96-well tissue culture plates and mixed with Drabkin reagent, which converts hemoglobin to cyanmethemoglobin (absorption peak at 540 nm). After 15 min, the absorbance of the samples was read at 570 nm using a plate reader. The obtained data was background corrected and used to calculate the hemolytic index as percentage of the hemoglobin released after the treatment with the tested compounds, relative to control samples. The hRBCs in PBS and distilled water were used as negative and positive controls.

B16 cells = experiment: Phalloidin staining and cell imaging (cytoskeleton, nucleus); type: cell-based, Mouse; conditions: 24 h, 6 μg/mL
Procedure: Cytoskeleton actin filaments of BJ and B16 cells were stained with phalloidin-FITC (Sigma-Aldrich, USA) according to the manufacturer’s protocol. Briefly, cells were washed with PBS (5 min, 3 times), fixed for 5 min with 3% paraformaldehyde, washed three times with PBS, permeabilized with 0.1% Triton X-100 in PBS for 15 min, washed three times with PBS, stained with 20 μg mL^−1 phalloidin-FITC at room temperature for 1 h and washed again three times with PBS. Cell nucleus was stained with 8 μM of Hoechst 33342 solution for 10 min, washed three times with PBS and finally, mounted and sealed on glass slides with FluorSave™ Reagent (Merck Millipore, Germany). The fluorescence images were acquired using an Andor DSD2 Confocal Unit (Andor, Ireland), mounted on an epifluorescence microscope, Olympus BX-51 (Olympus, Germany), equipped with a 40x and 100x objective and an appropriate DAPI/Hoechst filter cube (excitation filter 390/40 m, dichroic mirror 405 nm and emission filter 452/45 nm) and GFP/FITC filter cube (excitation filter 466/40 nm, dichroic mirror 488 nm and emission filter 525/54 nm).

P. aeruginosa 27853 [2] = experiment: MBEC assay, micro-titer method (biofilm); type: cell-based, Pseudomonas aeruginosa
Procedure: (§1) The antibacterial assays were performed on Gram-negative (Escherichia coli ATCC 25922, E. coli 5, Pseudomonas aeruginosa ATCC 27853, P. aeruginosa ATCC 9027) and Gram-positive (Staphylococcus aureus ATCC 25923, S. aureus ATCC 6538, MRSA (Meticillin-resistant S. aureus) 388, ATCC, American Type Culture Collection) bacterial strains. Microbial suspensions (1.5 × 10^8 CFU/mL; colony forming units (CFU)) corresponding to 0.5 McFarland density obtained from 15 to 18-h bacterial cultures developed on solid media were used. The antimicrobial activity was tested on Mueller–Hinton agar medium.
(§2) The assessment of the complexes’ influence on the microbial ability to colonize an inert substratum with the establishment of the minimal biofilm eradication concentration (MBEC) was performed by the micro-titer method, following previously described protocols. The absorbance at 490 nm was measured with an Apollo LB 911ELISA (Berthold Technologies GmbH & Co. KG, Waltham, MA, USA) reader. All experiments were performed in triplicates.

P. aeruginosa 9027 [3] = experiment: MBEC assay, micro-titer method (biofilm); type: cell-based, Pseudomonas aeruginosa
Procedure: as §1, §2

P. aeruginosa 27853 [4] = experiment: MIC assay, liquid medium microdilution (planktonic growth); type: cell-based, Pseudomonas aeruginosa; conditions: P. aeruginosa 27853, 24 h at 37 °C
Procedure: as §1
(§3) The quantitative assay of the antimicrobial activity was performed by the liquid medium microdilution method, in 96-well multi-well plates, to establish the minimal inhibitory concentration (MIC). For this purpose, serial two-fold dilutions of the compounds ranging between 1.000 and 1.95 μg/mL were performed in a 200 μL volume of broth and each well was seeded with 50 μL microbial inoculums. Sterility control (wells containing only culture medium) and culture controls (wells containing culture medium seeded with the microbial inoculum) were used. The influence of the DMSO solvent was also quantified in a series of wells containing DMSO, diluted accordingly with the dilution scheme used for the complexes. The plates were incubated for 24 h at 37 °C, and MIC values were considered as the lowest concentration of the tested compound that inhibited the visible growth of the microbial overnight cultures.

P. aeruginosa 9027 [5] = experiment: as above; type: cell-based, Pseudomonas aeruginosa; conditions: P. aeruginosa 9027 (multi-drug-resistant), 24 h at 37 °C
Procedure: as §1, §3

[6] = test system: normal BJ cell (human fibroblast); experiment: MTT cell viability assay; type: cell-based
Procedure: The cytotoxicity of ligand and copper(II) complexes was tested on normal BJ cell as well as on B16 (melanoma) tumor cells, which were grown for 48 h in culture medium containing the tested complexes in 0–25 μg/mL concentration range.
Human fibroblast cells (BJ-ATCC CRL-2522, Manassas, VA, USA) were grown in minimal essential medium (MEM) supplemented with 2 mM L-Glutamine, 10% fetal calf serum (FCS), 100 units/mL of penicillin and 100 µg/mL of streptomycin at 37 °C in a humidified incubator under an atmosphere containing 5% CO2. Mouse melanoma cells (B16-ATCC CRL-6475, Manassas, VA, USA) were grown in DMEM (Dulbecco’s Modified Eagle Medium) supplemented with similar reagents as MEM. All cell cultivation media and reagents were purchased from Biochrom AG (Berlin, Germany) and Sigma-Aldrich (Darmstadt, Germany).
Cell viability was evaluated using 3-(4,5-dimethylthiazol-2-yl)-2,5-diphenyltetrazolium bromide (MTT) assay, as described previously. First, the cells were seeded in 96-well plates (20,000 cells/well) and cultured for 24 h in medium. After overnight incubation, the medium was changed and the investigated sample in concentration varying from […] was added for 24 h. The negative control was represented by cells cultivated in medium without the investigated compounds. Following incubation, the medium was changed and the MTT solution was added to each well to a final concentration of 1 mg/mL and incubated for additional 4 h, at 37 °C. Finally, the medium was collected and DMSO was used to dissolve the insoluble formazan product. The absorbance of the samples was recorded at 570 nm using a plate reader Mithras 940 (Berthold). The data were corrected for the background and the percentage of viable cells was obtained using the equation:Cell viability = [(A570 of treated cells)/(A570 of untreated cells)] × 100%
The half-maximal inhibitory concentration (IC50) was determined by fitting the data with a logistical sigmoidal equation using the software Origin 8.1 from Microcal Inc. (Los Angeles, CA, USA).

E. coli 25922 = experiment: MIC assay, liquid medium microdilution (planktonic growth); type: cell-based, Escherichia coli; conditions: E. coli 25922, 24 h at 37 °C
Procedure: as §1, §3

E. coli 5 ESBL = experiment: as above; type: cell-based, Escherichia coli; conditions: E. coli 5 ESBL, 24 h at 37 °C
Procedure: as §1, §3

SMILES | Hemolysis [1] [%] | Cell morphology (cytoskeleton and nucleus) (B16 cells) | MBEC value (P. aeruginosa 27853 [2]) [mM] | MBEC value (P. aeruginosa 9027 [3]) [mM] | MIC (P. aeruginosa 27853 [4]) [mM] | MIC (P. aeruginosa 9027 [5]) [mM] | Viability of BJ cells ([6]; 48 h, highest tested concentration (0–25 μg/mL range)) [%] | MIC (E. coli 25922) [mM] | MIC (E. coli 5 ESBL) [mM] | IC50 BJ Cells 24 h ([6]; BJ cells, 24 h, MTT) [µg/mL] | IC50 ([6]; BJ cells, 24 h, MTT, read-out: IC50 BJ Cells 24 h) [µM] | IC50 BJ Cells 48 h ([6]; BJ cells, 48 h, MTT) [µg/mL] | IC50 ([6]; BJ cells, 48 h, MTT, read-out: IC50 BJ Cells 48 h) [µM]
Cc1cc(-c2ccccc2)nc2ncnn12.[Cu+2].[O-][Cl+3]([O-])([O-])[O-].[O-][Cl+3]([O-])([O-])[O-].c1ccc(-c2ccccn2)nc1.c1ccc(-c2ccccn2)nc1 [(1), [Cu(bpy)2(pmtp)](ClO4)2] | 0.59 ± 0.18 | does not alter the morphology of the cells | 0.40 | 0.20 | 0.40 | 0.40 | 70 | 0.20 | 0.40 |  |  |  | 
Cc1cc(-c2ccccc2)nc2ncnn12.[Cu+2].[O-][Cl+3]([O-])([O-])[O-].[O-][Cl+3]([O-])([O-])[O-].c1cnc2c(c1)ccc1cccnc12.c1cnc2c(c1)ccc1cccnc12 [(2), [Cu(phen)2(pmtp)](ClO4)2] | 0.77 ± 0.14 | affects the cell morphology | 0.09 | 0.01 | 0.09 | 0.09 |  | 0.02 | 0.05 | 5.98 | 7 | 3.30 | 4
